From publication PMC3816012 (Structure (London, England : 1993), 2013) come the findings set out here.

In the assay the target is IcmR-IcmQ (Legionella pneumophila, UniProt O54635).

Consider `NC(=O)c1ccc[n+]([C@@H]2O[C@H](COP(=O)(O)OP(=O)(O)OC[C@H]3O[C@@H](n4cnc5c(N)ncnc54)[C@H](O)[C@@H]3O)[C@@H](O)[C@H]2O)c1` [NAD+], for which the “filter binding assay, 32P-labelled NAD+” value is recorded as “A similar binding profile was observed for wild type IcmR-IcmQ complexes”.
